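Where inhibition never reached the appropriate level, the endpoint shown equals the highest concentration tested. Otherwise, values were interpolated linearly from a five-concentration, 48-hour dose response in 96-well plates. Abbreviation: GI50, concentration required for 50% inhibition of growth.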 Activity calls are given as the source filed them. No stated cut-off is given here; in the data, active = GI50 up to about 1.1 µM and inactive = higher.
What was measured:
Assay in all cases: growth of human tumour cells (NCI), 48 h
SNB-78 = tested on: SNB-78
OVCAR-5 = tested on: OVCAR-5
KM12 = tested on: KM12
SF-539 = tested on: SF-539
SK-MEL-28 = tested on: SK-MEL-28
RXF 393 = tested on: RXF 393
COLO 205 = tested on: COLO 205
A549 = tested on: A549
NCI-H460 = tested on: NCI-H460
DMS-273 = tested on: DMS-273
IGROV-1 = tested on: IGROV-1
786-0 = tested on: 786-0
HOP-62 = tested on: HOP-62
K562 = tested on: K562
EKVX = tested on: EKVX
OVCAR-3 = tested on: OVCAR-3
SR = tested on: SR
HCT-15 = tested on: HCT-15
UACC-257 = tested on: UACC-257
HCT-116 = tested on: HCT-116
TK-10 = tested on: TK-10
CCRF-CEM = tested on: CCRF-CEM
DMS-114 = tested on: DMS-114
SK-OV-3 = tested on: SK-OV-3
HCC 2998 = tested on: HCC 2998
UO-31 = tested on: UO-31
MOLT-4 = tested on: MOLT-4
KM-20L2 = tested on: KM-20L2
ACHN = tested on: ACHN
DLD-1 = tested on: DLD-1
CAKI-1 = tested on: CAKI-1
OVCAR-8 = tested on: OVCAR-8
SNB-75 = tested on: SNB-75
SW-620 = tested on: SW-620
M14 = tested on: M14
SK-MEL-2 = tested on: SK-MEL-2
Malme-3M = tested on: Malme-3M
LOX IMVI = tested on: LOX IMVI
SN12C = tested on: SN12C
U-251 = tested on: U-251
UACC-62 = tested on: UACC-62
HT-29 = tested on: HT-29
OVCAR-4 = tested on: OVCAR-4
SF-268 = tested on: SF-268
LXFL 529 = tested on: LXFL 529
SK-MEL-5 = tested on: SK-MEL-5
HOP-92 = tested on: HOP-92
XF498 = tested on: XF498
SNB-19 = tested on: SNB-19
NCI-H23 = tested on: NCI-H23
HL-60 = tested on: HL-60
RPMI-8226 = tested on: RPMI-8226
SF-295 = tested on: SF-295
NCI-H226 = tested on: NCI-H226
M19-MEL = tested on: M19-MEL
NCI-H522 = tested on: NCI-H522
A498 = tested on: A498

Measured: GI50

CCOC1=C2N=C(C(CC)c3ccc(F)cc3)N=C2C(=O)c2ccccc21 (stereo unspecified)
inactive: SNB-78 27.8 µM | OVCAR-5 26.6 µM | KM12 21.9 µM | SF-539 16.3 µM | SK-MEL-28 36.5 µM | RXF 393 11.6 µM | COLO 205 22.3 µM | A549 22.1 µM | NCI-H460 26.5 µM | DMS-273 25.6 µM | IGROV-1 23.5 µM | 786-0 29.9 µM | HOP-62 46.3 µM | K562 20.6 µM | EKVX 26.9 µM | OVCAR-3 32.9 µM | SR 21.3 µM | UACC-257 20.2 µM | HCT-116 23.9 µM | TK-10 22 µM | CCRF-CEM 40 µM | DMS-114 22.4 µM | SK-OV-3 32.1 µM | HCC 2998 29.9 µM | UO-31 13.2 µM | MOLT-4 18 µM | KM-20L2 19 µM | ACHN 19.1 µM | DLD-1 7.55 µM | CAKI-1 22 µM | OVCAR-8 30.5 µM | SNB-75 21 µM | SW-620 36.4 µM | M14 26 µM | SK-MEL-2 18.7 µM | Malme-3M 23.3 µM | LOX IMVI 16.2 µM | SN12C 16.3 µM | U-251 21.7 µM | UACC-62 10.9 µM | HT-29 19.2 µM | OVCAR-4 19.7 µM | SF-268 19.7 µM | LXFL 529 23.9 µM | SK-MEL-5 13.9 µM | HOP-92 17.7 µM | XF498 17.5 µM | SNB-19 51.4 µM | NCI-H23 25.3 µM | HL-60 35.3 µM | RPMI-8226 23.8 µM | SF-295 21 µM | NCI-H226 16 µM | M19-MEL 24 µM | NCI-H522 22.3 µM
18.6 µM: HCT-15

CC(C)(C)CC(C)(C)NCC(O)COc1ccc(C(C)(C)c2ccc(OCC(O)CNC(C)(C)CC(C)(C)C)cc2)cc1 (stereo unspecified)
active: SK-MEL-28 0.615 µM | COLO 205 0.376 µM | NCI-H460 0.46 µM | DMS-273 1.04 µM | 786-0 1.06 µM | K562 0.244 µM | SR 0.366 µM | CCRF-CEM 0.356 µM | HCC 2998 0.349 µM | MOLT-4 0.34 µM | DLD-1 0.832 µM | SW-620 0.213 µM | M14 0.279 µM | LOX IMVI 0.429 µM | U-251 0.7 µM | HT-29 0.403 µM | LXFL 529 0.357 µM
inactive: SNB-78 1.95 µM | OVCAR-5 1.88 µM | KM12 1.56 µM | SF-539 1.86 µM | RXF 393 1.82 µM | A549 1.6 µM | IGROV-1 1.77 µM | HOP-62 1.77 µM | EKVX 1.72 µM | OVCAR-3 1.77 µM | HCT-116 2.37 µM | DMS-114 1.76 µM | SK-OV-3 1.77 µM | UO-31 1.61 µM | KM-20L2 1.47 µM | ACHN 1.77 µM | CAKI-1 1.75 µM | OVCAR-8 1.64 µM | SNB-75 1.6 µM | SK-MEL-2 1.84 µM | Malme-3M 1.59 µM | SN12C 1.63 µM | UACC-62 1.81 µM | A498 1.58 µM | OVCAR-4 2.01 µM | SF-268 1.86 µM | SK-MEL-5 1.32 µM | HOP-92 1.78 µM | XF498 1.64 µM | SNB-19 1.64 µM | NCI-H23 1.76 µM | HL-60 1.46 µM | RPMI-8226 1.46 µM | SF-295 1.68 µM | NCI-H226 1.97 µM | M19-MEL 1.53 µM | NCI-H522 1.61 µM
1.37 µM: HCT-15

From ChEMBL document CHEMBL1201862, “PubChem BioAssay data set” (2004)
